Measurements: patent publication US6759522B2, “Sulforhamnosylacyglycerol derivatives and use thereof as medicaments” (Toyo Suisan Kaisha, Ltd., priority 1999, dated 2004)
Where a name gives a salt, the structure may show the parent alone.

What was measured:
DNA polymerase α = molecular target: T1, DNA polymerase α (Bos taurus, UniProt A0AAA9TD94); assay: Assay 1: inhibitory effect against DNA polymerase α ([3H]-dTTP incorporation); assay type: biochemical; conditions: DNA polymerase α from bovine thymus, 0.05 U, 37° C., 60 minutes
T1 construct: from tissue; host or cells: bovine thymus
T1 sequence (A0AAA9TD94 1-1441): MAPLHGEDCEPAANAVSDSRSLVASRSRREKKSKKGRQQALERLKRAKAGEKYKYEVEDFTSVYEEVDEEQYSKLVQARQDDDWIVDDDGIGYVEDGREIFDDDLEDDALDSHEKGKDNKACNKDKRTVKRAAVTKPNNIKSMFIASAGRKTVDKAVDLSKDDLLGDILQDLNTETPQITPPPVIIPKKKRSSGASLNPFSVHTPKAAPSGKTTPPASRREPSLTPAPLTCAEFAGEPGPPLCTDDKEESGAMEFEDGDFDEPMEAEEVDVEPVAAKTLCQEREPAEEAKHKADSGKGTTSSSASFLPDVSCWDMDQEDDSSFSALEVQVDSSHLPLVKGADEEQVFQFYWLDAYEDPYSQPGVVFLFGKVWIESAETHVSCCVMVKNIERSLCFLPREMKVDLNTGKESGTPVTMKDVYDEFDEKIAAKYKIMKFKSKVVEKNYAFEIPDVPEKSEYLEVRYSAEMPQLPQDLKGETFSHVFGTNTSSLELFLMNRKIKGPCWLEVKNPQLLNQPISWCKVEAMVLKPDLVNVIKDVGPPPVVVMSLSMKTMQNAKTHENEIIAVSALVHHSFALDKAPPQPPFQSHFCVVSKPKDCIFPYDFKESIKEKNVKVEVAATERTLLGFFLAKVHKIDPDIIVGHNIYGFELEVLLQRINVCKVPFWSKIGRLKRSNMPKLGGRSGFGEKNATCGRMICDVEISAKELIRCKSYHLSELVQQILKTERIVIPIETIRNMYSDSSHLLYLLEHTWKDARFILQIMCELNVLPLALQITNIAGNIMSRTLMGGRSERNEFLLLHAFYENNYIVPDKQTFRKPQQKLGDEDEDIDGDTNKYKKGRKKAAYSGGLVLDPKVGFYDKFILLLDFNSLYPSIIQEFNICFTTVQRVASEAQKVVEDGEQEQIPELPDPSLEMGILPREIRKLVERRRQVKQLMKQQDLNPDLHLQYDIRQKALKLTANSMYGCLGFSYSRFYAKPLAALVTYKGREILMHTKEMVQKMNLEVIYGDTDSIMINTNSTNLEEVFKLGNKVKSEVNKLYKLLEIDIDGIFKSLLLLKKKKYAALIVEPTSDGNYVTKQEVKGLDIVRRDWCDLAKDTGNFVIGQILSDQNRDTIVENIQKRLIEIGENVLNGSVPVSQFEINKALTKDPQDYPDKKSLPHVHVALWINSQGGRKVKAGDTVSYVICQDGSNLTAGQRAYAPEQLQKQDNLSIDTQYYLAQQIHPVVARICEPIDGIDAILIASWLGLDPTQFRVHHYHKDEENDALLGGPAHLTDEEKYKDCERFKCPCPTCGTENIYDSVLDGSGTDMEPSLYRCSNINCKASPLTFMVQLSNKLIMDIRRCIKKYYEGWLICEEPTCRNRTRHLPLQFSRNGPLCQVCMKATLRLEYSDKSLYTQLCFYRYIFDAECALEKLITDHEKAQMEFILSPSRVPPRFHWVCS
Protocol: An assay on inhibitory effect against a DNA polymerase α was carried out in the following manner.
(§1) Each mixture was added with a buffer containing inorganic salts for the enzymatic reaction, [^3H]-labeled dTTP and compounds for reaction containing a template DNA strand, and incubated at 37° C. for 60 minutes.
(§2) After the enzymatic reaction was quenched, the resultant reaction product was fixed on a dedicated filter and subjected to measurement by a liquid scintillation counter. The amount of enzymatically incorporated dTTP was calculated as a radiation dose (cpm) of [^3H]. Note that, each of the sulforhamnosylacylglycerol derivatives is a mixture of the S- and R-configurations with respect to an absolute configuration of the carbon of the 2-position of the glycerol moiety.

DNA polymerase β = molecular target: T2, DNA polymerase β (Rattus norvegicus, UniProt P06766); assay: Assay 2: inhibitory effect against DNA polymerase β ([3H]-dTTP incorporation); assay type: biochemical; conditions: for inhibitory effect against the DNA polymerase β (in words): at the tested concentrations, summary of Table 2; for IC50: recombinant rat DNA polymerase β, 0.05 U, 37° C., 60 minutes
T2 construct: made in house; host or cells: E. coli
Protocol: as §1, §2
An assay on inhibitory effect against a DNA polymerase β was carried out in the following manner.
The same procedure as in Assay 1 was carried out except that 0.05 U of DNA polymerase β was used in place of the DNA polymerase α. The DNA polymerase β was prepared from recombinant E. coli introduced with rat DNA polymerase β gene. In this way, the inhibitory effect of test compounds (SRAG1, SRAG2 and SRAG3 shown in Table 1 and dissolved in DMSO) against DNA polymerase : was assayed.

Colon cancer cells DLD-1 = assay: Assay 3: anticancer activity against cultured colon cancer cells (MTT assay); assay type: cell-based; conditions: Homo sapiens, DLD-1, 48 hour cultivation
Protocol: An assay on anticancer activity against cultured colon cancer cells was carried out in the following manner.
(§3) Colon cancer cells DLD-1 were maintained and subcultured in RPMI 1640 medium (containing 10% calf serum). Each of the test compounds (SRAG1 to SRAG3 shown in Table 1) was suspended and diluted in the medium, and then the cancer cells were cultivated together with the medium in a 96-well plate at 3×10^3 cells/well. After 48 hour cultivation, the MTT assay (Mosmann, T: Journal of Immunological Method, 65, 55-63 (1983)) was carried out to compare survival rates.

[1] = test system: gastric cancer cells NUGC-3; assay: Assay 4: anticancer activity against cultured gastric cancer cells (MTT assay); assay type: cell-based; conditions: Homo sapiens, NUGC-3, 48 hour cultivation
Protocol: as §3
An assay on anticancer activity against cultured gastric cancer cells was carried out in the same manner as in the assay 3 except that gastric cancer cells NUGC-3 were used instead of the colon cancer cells DLD-1.

inhibitory effect against the DNA polymerase β (in words) (DNA polymerase β) | IC50 (DNA polymerase β) [µM] | IC50 (Colon cancer cells DLD-1) [µg/mL] | IC50 [1] [µg/mL] | SMILES | IC50 (DNA polymerase α) [µM]
did not show an inhibitory effect | > 90.8 | 42.5 | 45 | CCCCCCCCCCCCCC(=O)OCC(O)CO[C@H]1O[C@H](CS(=O)(=O)[O-])[C@@H](O)[C@H](O)[C@@H]1O.[Na+] (stereo partly drawn) [SRAG1, 3-O-(6-deoxy-6-sulfo-α-D-mannopyranosyl)-1-O-myristoyl-glycerol sodium salt] | 23.6
significant inhibitory activity | 28.7 | 30 | 40 | CCCCCCCCCCCCCCCC(=O)OCC(O)CO[C@H]1O[C@H](CS(=O)(=O)[O-])[C@@H](O)[C@H](O)[C@@H]1O.[Na+] (stereo partly drawn) [SRAG2, 3-O-(6-deoxy-6-sulfo-α-D-mannopyranosyl)-1-O-palmitoyl-glycerol sodium salt] | 5.7
significant inhibitory activity | 11.1 | 14 | 28.5 | CCCCCCCCCCCCCCCCCC(=O)OCC(O)CO[C@H]1O[C@H](CS(=O)(=O)[O-])[C@@H](O)[C@H](O)[C@@H]1O.[Na+] (stereo partly drawn) [SRAG3, 3-O-(6-deoxy-6-sulfo-α-D-mannopyranosyl)-1-O-stearoyl-glycerol sodium salt] | 3.3
 |  |  |  | CCCCCCCCCCCCCCCCCC(=O)OCC(CO[C@H]1O[C@H](CS(=O)(=O)O)[C@@H](O)[C@H](O)[C@@H]1O)OC(=O)CCCCCCCCCCCCCCCCC (stereo partly drawn) [SRAG4, 3-O-(6-deoxy-6-sulfo-α-D-mannopyranosyl)-1,2-di-O-stearoyl-glycerol sodium salt] | 0.115
